Like-named read-outs stand apart in the source and are kept apart here.
Tests used:
Type in all cases: cell-based, Human
[1] = system: HT29 cells; assay: Inhibitory effect of compounds on HT29 cell proliferation; settings: read-out: IC50, inhibitory activity on HT29 cell proliferation
Procedure: (1) Cell plating: First, tumor cells HT29 were cultured in corresponding medium, then digested with trypsin, centrifuged, resuspended, and counted, and the cells were adjusted to an appropriate concentration for plating.
(§1) Co-incubation of the compound of the present disclosure and tumor cells: after the cells adhered to the wall, the medium was removed, and the diluted bioactive molecule (the compound of the present disclosure) was added to the wells of the above plate, and incubated for 72 h.
(§2) In vitro cell viability detection: After the incubation, 50 μL of Cell Counting-Lite™ 2.0 reagent (Vazyme/Novazyme) was added to each well, shaken and mixed well in the dark, reacted for 10 minutes, and then the detection was carried out with a microplate reader (manufacturer: BMG, Model: PHERAStar-FS) for reading. The background RLU was obtained by using cell-free medium (with Cell Counting-Lite™), and the vehicle RLU was obtained by using cell-containing medium (with Cell Counting-Lite™). Cell inhibition rate=1−(sample RLU−background RLU)/(solvent RLU−background RLU)×100%. According to the four-parameter model fitting curve, the half maximal inhibitory concentration (IC50) of the compound was calculated, and the detection results were shown in Table 2.

[2] = system: MDA-MB-231 cells; assay: Inhibitory effect of compounds on MDA-MB-231 cell proliferation; settings: read-out: IC50, inhibitory activity on MDA-MB-231 cell proliferation
Procedure: (1) Cell plating: First, tumor cells MDA-MB-231 were cultured in corresponding medium, then digested with trypsin, centrifuged, resuspended, and counted, and the cells were adjusted to an appropriate concentration for plating.
as §1
as §2, with “Table 18.” for “Table 2.”

[3] = system: Jeko-1 cells; assay: Inhibitory effect of compounds on Jeko-1 cell proliferation; settings: read-out: IC50, inhibitory activity on Jeko-1 cell proliferation
Procedure: (1) Cell plating: First, tumor cells Jeko-1 were cultured in corresponding medium, then digested with trypsin, centrifuged, resuspended, and counted, and the cells were adjusted to an appropriate concentration for plating.
as §1
as §2, with “Table 20.” for “Table 2.”

[4] = system: NCI-H358 cells; assay: Inhibitory effect of compounds on NCI-H358 cell proliferation; settings: Homo sapiens, NCI-H358, 72 h, read-out: IC50, inhibitory activity on NCI-H358 cell proliferation, NCI-H358 human non-small cell lung cancer cells, 72 h incubation, Cell Counting-Lite 2.0
Procedure: (1) Cell plating: First, tumor cells NCI-H358 were cultured in corresponding medium, then digested with trypsin, centrifuged, resuspended, and counted, and the cells were adjusted to an appropriate concentration for plating.
as §1
as §2, with “Table 10.” for “Table 2.”

[5] = system: A549 cells; assay: Inhibitory effect of compounds on A549 cell proliferation; settings: Homo sapiens, A549, 72 h, read-out: IC50, inhibitory activity on A549 cell proliferation
Procedure: (1) Cell plating: First, tumor cells A549 were cultured in the corresponding medium, then digested with trypsin, centrifuged and resuspended, and counted, and the cells were adjusted to an appropriate concentration for plating.
as §1
as §2, with “cell activity” for “cell viability”, “Table 4.” for “Table 2.”

[6] = system: NCI-N87 cells; assay: Inhibitory effect of compounds on NCI-N87 cell proliferation
Procedure: (1) Cell plating: First, tumor cells NCI-N87 were cultured in corresponding medium, then digested with trypsin, centrifuged, resuspended, and counted, and the cells were adjusted to an appropriate concentration for plating.
as §1
as §2, with “Table 12.” for “Table 2.”

[7] = system: Hela cells; assay: Inhibitory effect of compounds on Hela cell proliferation; settings: Homo sapiens, HeLa, 72 h, read-out: IC50, inhibitory activity on Hela cell proliferation
Procedure: (1) Cell plating: First, tumor cells Hela were cultured in corresponding medium, then digested with trypsin, centrifuged, resuspended, and counted, and the cells were adjusted to an appropriate concentration for plating.
as §1
as §2, with “Table 14.” for “Table 2.”

CC[C@@]1(O)C(=O)OCc2c1cc1n(c2=O)Cc2c-1nc1cc(F)c(C)c3c1c2[C@@H](NC(=O)[C@@H](O)CN(C)C)CC3 (single isomer, unassigned) [Example 20 (1-10-B)]
IC50 ([1]; Homo sapiens, HT-29, 72 h): 10.3 nM | IC50 ([2]; Homo sapiens, MDA-MB-231, 72 h): 27.2 nM

CC[C@@]1(O)C(=O)OCc2c1cc1n(c2=O)Cc2c-1nc1cc3c(cc1c2CCNCCOC)OCO3 [Example 22 (4-15), (S)-7-Ethyl-7-hydroxy-14-(2-((2-methoxyethyl)amino)ethyl)-7H-[1,3]dioxolano[4,5-g]pyrano[3′,4′:6,7]indolizino[1,2-b]quinolin-8,11 (10H,13H)-dione]
IC50 ([3]; Homo sapiens, JeKo-1, 72 h): 0.11 nM | IC50 [4]: 17.8 nM | IC50 ([1]; Homo sapiens, HT-29, 72 h): 5.2 nM | IC50 ([2]; Homo sapiens, MDA-MB-231, 72 h): 175 nM

CC[C@@]1(O)C(=O)OCc2c1cc1n(c2=O)Cc2c-1nc1cc(Cl)c(C)c3c1c2[C@H](NC(=O)C1(O)CC1)CC3 [Example 7 (2-20-B), N-((1R,9S)-5-chloro-9-ethyl-9-hydroxy-4-methyl-10,13-dioxo-2,3,9,10,13,15-hexahydro-1H,12H-benzo[de]pyrano[3′,4′:6,7]indolizino[1,2-b]quinolin-1-yl)-1-hydroxycyclopropane-1-carboxamide]
IC50 [5]: 23.1 nM | IC50 ([1]; Homo sapiens, HT-29, 72 h): 4.03 nM

CC[C@@]1(O)C(=O)OCc2c1cc1n(c2=O)Cc2c-1nc1cc(F)c(Cl)c3c1c2[C@@H](NC(=O)CO)CC3 [Example 9 (3-4-A), N-((1S,9S)-4-Chloro-9-ethyl-5-fluoro-9-hydroxy-10,13-dioxo-2,3,9,10,13,15-hexahydro-1H, 12H-benzo[de]pyrano[3′,4:6,7]indolizino[1,2-b]quinolin-1-yl)-2-hydroxyacetamide]
IC50 ([3]; Jeko-1 human mantle cell lymphoma cells, 72 h incubation, Cell Counting-Lite 2.0): 0.27 nM | IC50 ([1]; HT29 human colon cancer cells, 72 h incubation, Cell Counting-Lite 2.0): 5.55 nM | IC50 ([2]; MDA-MB-231 human breast cancer cells, 72 h incubation, Cell Counting-Lite 2.0): 285 nM | IC50 ([6]; NCI-N87 human gastric cancer cells, 72 h incubation, Cell Counting-Lite 2.0, read-out: IC50, inhibitory activity on NCI-N87 cell proliferation): 4.38 nM

CC[C@@]1(O)C(=O)OCc2c1cc1n(c2=O)Cc2c-1nc1cc(F)c(C)c3c1c2[C@H](CN)CC3 (single isomer, unassigned) [Example 13 (5-7-B)]
IC50 ([3]; Homo sapiens, JeKo-1, 72 h): 0.18 nM | IC50 ([1]; Homo sapiens, HT-29, 72 h): 4.66 nM | IC50 ([2]; Homo sapiens, MDA-MB-231, 72 h): 172 nM | IC50 ([6]; Homo sapiens, NCI-N87, 72 h, read-out: IC50, inhibitory activity on NCI-N87 cell proliferation, NCI-N87 human gastric cancer cells, 72 h incubation, Cell Counting-Lite 2.0): 7.31 nM

CC#C[C@H](O)C(=O)N[C@H]1CCc2c(C)c(F)cc3nc4c(c1c23)Cn1c-4cc2c(c1=O)COC(=O)[C@]2(O)CC [Example 1 (1-1-B), (S)—N-((1S,9S)-9-ethyl-5-fluoro-9-hydroxy-4-methyl-10,13-dioxo-2,3,9,10,13,15-hexahydro-1H,12H-benzo[de]pyrano[3′,4′:6,7]indolizino[1,2-b]quinolin-1-yl)-2-hydroxypent-3-yneamide]
IC50 [7]: 3.65 nM | IC50 ([1]; Homo sapiens, HT-29, 72 h): 1.54 nM

CC[C@@]1(O)C(=O)OCc2c1cc1n(c2=O)Cc2c-1nc1cc(F)c(C)c3c1c2[C@@H](NC(=O)[C@H](O)CN(C)C)CC3 (single isomer, unassigned) [Example 20 (1-10-A)]
IC50 ([1]; Homo sapiens, HT-29, 72 h): 61.6 nM | IC50 ([2]; Homo sapiens, MDA-MB-231, 72 h): 97.6 nM

Source: patent US20250346606A1, “CAMPTOTHECIN COMPOUND, PREPARATION METHOD THEREFOR, AND APPLICATION THEREOF” (SICHUAN KELUN-BIOTECH BIOPHARMACEUTICAL CO., LTD., priority 2021, published 2025)
